Laboratory results published in patent US10723699B2 (Hyundai Pharm Co., Ltd., priority 2015, dated 2020).
Where two headings read alike, the source gives them in different places.

Target: T1, G protein-coupled receptor 119 (GPR-119) (Mesocricetus auratus, UniProt A0A1U8CD06)
T1 construct: hamster-derived β-cells containing G protein-coupled receptor 119 (GPR-119), HIT-T15 cells; host or cells: HIT-T15 (hamster pancreatic β-cells)
T1 sequence (A0A1U8CD06 1-334): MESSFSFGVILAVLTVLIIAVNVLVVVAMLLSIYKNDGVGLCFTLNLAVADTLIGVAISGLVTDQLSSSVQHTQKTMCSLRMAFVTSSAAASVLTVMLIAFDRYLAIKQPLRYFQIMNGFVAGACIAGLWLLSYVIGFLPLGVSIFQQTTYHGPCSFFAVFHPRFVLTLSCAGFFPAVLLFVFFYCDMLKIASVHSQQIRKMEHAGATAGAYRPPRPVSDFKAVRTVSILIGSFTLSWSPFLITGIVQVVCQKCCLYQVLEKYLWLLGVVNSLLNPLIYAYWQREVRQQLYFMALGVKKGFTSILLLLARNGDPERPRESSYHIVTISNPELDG
Experiment: cAMP activity in HIT-T15 cells (cAMP dynamic kit, FRET)
Format: cell-based, hamster
In short: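 Hamster HIT-T15 cells (60,000/well) were treated next day with compound at six concentrations, 0.0032–10 μM, for 1 h at 37° C. Cells were then lysed and cAMP measured by competitive HTRF immunoassay (D2-cAMP, cryptate anti-cAMP). Activity was derived as the change in FRET signal relative to DMSO.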

[1] = 1 hour at 37° C., six concentrations 0.0032 to 10 μM, read-out: EC50

| SMILES | EC50 [1] [nM] | EC50 (Table 2, read-out: EC50 value) [nM] |
| --- | --- | --- |
| CCc1cnc(N2CCC(COc3ccc(C4=CCC(C(=O)N(C)CCCO)CC4)cc3F)CC2)nc1 (stereo not drawn) [Example 376, 4-(4-((1-(5-ethylpyrimidin-2-yl)piperidin-4-yl)methoxy)-3-fluorophenyl)-N-(3-hydroxypropyl)-N-methylcyclohex-3-enecarboxamide] | 10.5 | ≤ 50 |
| CCc1cnc(N2CCC(COc3ccc(C4=CCC(C(=O)NCC(C)(C)CO)CC4)cc3F)CC2)nc1 (stereo not drawn) [Example 378, 4-(4-((1-(5-ethylpyrimidin-2-yl)piperidin-4-yl)methoxy)-3-fluorophenyl)-N-(3-hydroxy-2,2-dimethylpropyl)cyclohex-3-enecarboxamide] | 20 | ≤ 50 |
| CCc1cnc(N2CCC(COc3ccc(C4=CCC(C(=O)N5CCN(CCCO)CC5)CC4)cc3)CC2)nc1 (stereo not drawn) [Example 380, (4-(4-((1-(5-ethylpyrimidin-2-yl)piperidin-4-yl)methoxy)phenyl)cyclohex-3-enyl)(4-(3-hydroxypropyl)piperazin-1-yl)methanone] | 79 |  |
| CC(C)c1noc(N2CCC(COc3ccc(C4=CCC(C(=O)N5CCNCC5)CC4)cc3F)CC2)n1 (stereo not drawn) [Example 381, (4-(3-fluoro-4-((1-(3-isopropyl-1,2,4-oxadiazol-5-yl)piperidin-4-yl)methoxy)phenyl)cyclohex-3-enyl)(piperazin-1-yl)methanone] | 110 |  |
| CCc1cnc(N2CCC(COc3ccc(C4=CCC(C(=O)N5CCC(CO)CC5)CC4)cc3C#N)CC2)nc1 (stereo not drawn) [Example 391, 2-((1-(5-ethylpyrimidin-2-yl)piperidin-4-yl)methoxy)-5-(4-(4-(hydroxymethyl)piperidine-1-carbonyl)cyclohex-1-enyl)benzonitrile] | 27 | ≤ 50 |
| CC(C)(C)OC(=O)N1CCC(COc2ccc(C3=CCC(C(=O)N4CCCC4)CC3)cc2F)CC1 (stereo not drawn) [Example 392, tert-butyl 4-((2-fluoro-4-(4-(pyrrolidine-1-carbonyl)cyclohex-1-enyl)phenoxy)methyl)piperidine-1-carboxylate] | 10 | ≤ 50 |
| CCc1cnc(N2CCC(COc3ccc(C4=CCC(C(=O)N5CCN(C6CC6)CC5)CC4)cc3)CC2)nc1 (stereo not drawn) [Example 395, (4-cyclopropylpiperazin-1-yl)(4-(4-((1-(5-ethylpyrimidin-2-yl)piperidin-4-yl)methoxy)phenyl)cyclohex-3-enyl)methanone] | 14 |  |
| CC(C)c1noc(N2CCC(COc3ccc(C4=CCC(C(=O)N5CCN(C6CC6)CC5)CC4)cc3)CC2)n1 (stereo not drawn) [Example 397, (4-cyclopropylpiperazin-1-yl)(4-(4-((1-(3-isopropyl-1,2,4-oxadiazol-5-yl)piperidin-4-yl)methoxy)phenyl)cyclohex-3-enyl)methanone] | 9.9 |  |
| CCc1cnc(N2CCC(COc3ccc(C4=CCC(C(=O)N5CCC(C#N)CC5)CC4)cc3C(F)(F)F)CC2)nc1 (stereo not drawn) [Example 398, 1-(4-(4-((1-(5-ethylpyrimidin-2-yl)piperidin-4-yl)methoxy)-3-(trifluoromethyl)phenyl)cyclohex-3-enecarbonyl)piperidine-4-carbonitrile] | 110 |  |

Other lines, results leading:

| EC50 [1] [nM] | EC50 (Table 2, read-out: EC50 value) [nM] | SMILES |
| --- | --- | --- |
| 110 |  | CCc1cnc(N2CCC(COc3ccc(C4=CCC(C(=O)N5CCCCC5)CC4)cc3C(F)(F)F)CC2)nc1 (stereo not drawn) [Example 375, (4-(4-((1-(5-ethylpyrimidin-2-yl)piperidin-4-yl)methoxy)-3-(trifluoromethyl)phenyl)cyclohex-3-enyl)(piperidin-1-yl)methanone] |
| 11 | ≤ 50 | CCc1cnc(N2CCC(COc3ccc(C4=CCC(C(=O)N5CCC(=NO)CC5)CC4)cc3F)CC2)nc1 (stereo not drawn) [Example 377, (4-(4-((1-(5-ethylpyrimidin-2-yl)piperidin-4-yl)methoxy)-3-fluorophenyl)cyclohex-3-enyl)(4-(hydroxyimino)piperidin-1-yl)methanone] |
| 42 | ≤ 50 | CC(C)c1noc(N2CCC(COc3ccc(C4=CCC(C(=O)N5CCN(C)CC5)CC4)cc3F)CC2)n1 (stereo not drawn) [Example 382, (4-(3-fluoro-4-((1-(3-isopropyl-1,2,4-oxadiazol-5-yl)piperidin-4-yl)methoxy)phenyl)cyclohex-3-enyl)(4-methylpiperazin-1-yl)methanone] |
| 48 | ≤ 50 | CCc1cnc(N2CCC(COc3ccc(C4=CCC(C(=O)N5CCN(C(=O)OC(C)(C)C)CC5)CC4)cc3F)CC2)nc1 (stereo not drawn) [Example 383, tert-butyl 4-(4-(4-((1-(5-ethylpyrimidin-2-yl)piperidin-4-yl)methoxy)-3-fluorophenyl)cyclohex-3-enecarbonyl)piperazine-1-carboxylate] |
| 100 |  | CCc1cnc(N2CCC(COc3ccc(C4=CCC(C(=O)N5CCN(C)CC5)CC4)cc3F)CC2)nc1 (stereo not drawn) [Example 384, (4-(4-((1-(5-ethylpyrimidin-2-yl)piperidin-4-yl)methoxy)-3-fluorophenyl)cyclohex-3-enyl)(4-methylpiperazin-1-yl)methanone] |
| 45 | ≤ 50 | CCc1cnc(N2CCC(COc3ccc(C4=CCC(C(=O)N5CCCCC5)CC4)cc3C#N)CC2)nc1 (stereo not drawn) [Example 385, 2-((1-(5-ethylpyrimidin-2-yl)piperidin-4-yl)methoxy)-5-(4-(piperidine-1-carbonyl)cyclohex-1-enyl)benzonitrile] |
| 64 |  | CCc1cnc(N2CCC(COc3ccc(C4=CCC(C(=O)N5CCCC5)CC4)cc3C#N)CC2)nc1 (stereo not drawn) [Example 386, 2-((1-(5-ethylpyrimidin-2-yl)piperidin-4-yl)methoxy)-5-(4-(pyrrolidine-1-carbonyl)cyclohex-1-enyl)benzonitrile] |
| 79 |  | CCc1cnc(N2CCC(COc3ccc(C4=CCC(C(=O)N5CCC5)CC4)cc3C#N)CC2)nc1 (stereo not drawn) [Example 387, 5-(4-(azetidine-1-carbonyl)cyclohex-1-enyl)-2-((1-(5-ethylpyrimidin-2-yl)piperidin-4-yl)methoxy)benzonitrile] |
| 51 |  | CCc1cnc(N2CCC(COc3ccc(C4=CCC(C(=O)N5CCOCC5)CC4)cc3C#N)CC2)nc1 (stereo not drawn) [Example 388, 2-((1-(5-ethylpyrimidin-2-yl)piperidin-4-yl)methoxy)-5-(4-(morpholine-4-carbonyl)cyclohex-1-enyl)benzonitrile] |
| 68 |  | CCc1cnc(N2CCC(COc3ccc(C4=CCC(C(=O)N5CCSCC5)CC4)cc3C#N)CC2)nc1 (stereo not drawn) [Example 389, 2-((1-(5-ethylpyrimidin-2-yl)piperidin-4-yl)methoxy)-5-(4-(thiomorpholine-4-carbonyl)cyclohex-1-enyl)benzonitrile] |
| 70 |  | CCc1cnc(N2CCC(COc3ccc(C4=CCC(C(=O)N5CCC(O)CC5)CC4)cc3C#N)CC2)nc1 (stereo not drawn) [Example 390, 2-((1-(5-ethylpyrimidin-2-yl)piperidin-4-yl)methoxy)-5-(4-(4-hydroxypiperidine-1-carbonyl)cyclohex-1-enyl)benzonitrile] |
| 130 |  | CCc1cnc(N2CCC(COc3ccc(C4=CCC(C(=O)N5CCCC5)CC4)cc3N)CC2)nc1 (stereo not drawn) [Example 393, (4-(3-amino-4-((1-(5-ethylpyrimidin-2-yl)piperidin-4-yl)methoxy)phenyl)cyclohex-3-enyl)(pyrrolidin-1-yl)methanone] |
| 140 |  | CCc1cnc(N2CCC(COc3ccc(C4=CCC(C(=O)N5CCOCC5)CC4)cc3C(F)(F)F)CC2)nc1 (stereo not drawn) [Example 400, (4-(4-((1-(5-ethylpyrimidin-2-yl)piperidin-4-yl)methoxy)-3-(trifluoromethyl)phenyl)cyclohex-3-enyl)(morpholino)methanone] |
